Consider 14 compounds from US11739098B2 (BRISTOL-MYERS SQUIBB COMPANY, priority 2017, dated 2023).

What all share (type): cell-based
Assay [1] has as its target T1, human TLR8 (Homo sapiens, UniProt Q9NR97).
T1 construct: host or cells: HEK-Blue cells (HEK293-derived reporter line)
T1 sequence (Q9NR97 27-1041): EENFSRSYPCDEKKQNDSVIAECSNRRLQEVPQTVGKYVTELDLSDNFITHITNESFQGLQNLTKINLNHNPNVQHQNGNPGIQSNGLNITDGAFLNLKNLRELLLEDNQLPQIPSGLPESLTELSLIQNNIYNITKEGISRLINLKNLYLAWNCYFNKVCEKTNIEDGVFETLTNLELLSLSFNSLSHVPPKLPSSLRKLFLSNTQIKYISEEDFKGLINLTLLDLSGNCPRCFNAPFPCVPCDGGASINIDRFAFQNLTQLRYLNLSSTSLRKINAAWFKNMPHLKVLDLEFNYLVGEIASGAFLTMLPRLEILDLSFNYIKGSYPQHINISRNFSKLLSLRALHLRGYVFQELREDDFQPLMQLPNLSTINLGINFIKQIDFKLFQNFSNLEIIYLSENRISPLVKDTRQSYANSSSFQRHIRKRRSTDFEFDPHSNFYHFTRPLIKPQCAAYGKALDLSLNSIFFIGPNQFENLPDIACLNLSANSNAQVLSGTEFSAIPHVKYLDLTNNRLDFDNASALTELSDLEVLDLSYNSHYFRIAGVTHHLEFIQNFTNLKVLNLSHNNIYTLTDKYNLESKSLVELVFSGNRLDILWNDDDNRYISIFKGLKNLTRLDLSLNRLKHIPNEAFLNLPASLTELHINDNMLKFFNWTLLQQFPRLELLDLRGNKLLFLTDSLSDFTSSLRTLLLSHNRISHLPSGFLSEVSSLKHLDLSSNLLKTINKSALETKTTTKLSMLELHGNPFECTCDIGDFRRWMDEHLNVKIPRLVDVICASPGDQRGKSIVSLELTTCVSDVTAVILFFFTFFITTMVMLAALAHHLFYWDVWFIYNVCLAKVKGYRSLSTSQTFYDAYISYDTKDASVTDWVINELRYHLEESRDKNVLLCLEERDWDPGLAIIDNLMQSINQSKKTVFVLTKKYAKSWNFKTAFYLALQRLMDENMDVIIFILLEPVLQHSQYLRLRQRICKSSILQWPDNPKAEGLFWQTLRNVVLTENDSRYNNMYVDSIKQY
Description: TLR8 inhibition reporter assay (HEK-Blue cells, SEAP reporter, R848 stimulation). The conditions noted are these: HEK-Blue cells overexpressing human TLR8, SEAP reporter, R848 15.9 μM. Put shortly:
(§1)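 Percent inhibition of agonist-induced SEAP secretion in HEK-Blue cells after 22 h at 37 °C. Stimuli: 7.5 μM gardiquimod, 15.9 μM R848, 5 nM ODN2006 for TLR7, TLR8 and TLR9, added after 30 min compound exposure over a 0.05 nM–50 μM range.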

Assay [2] deals with T2, human TLR9 (Homo sapiens, UniProt Q9NR96).
T2 construct: host or cells: HEK-Blue cells (HEK293-derived reporter line)
T2 sequence (Q9NR96 26-1032): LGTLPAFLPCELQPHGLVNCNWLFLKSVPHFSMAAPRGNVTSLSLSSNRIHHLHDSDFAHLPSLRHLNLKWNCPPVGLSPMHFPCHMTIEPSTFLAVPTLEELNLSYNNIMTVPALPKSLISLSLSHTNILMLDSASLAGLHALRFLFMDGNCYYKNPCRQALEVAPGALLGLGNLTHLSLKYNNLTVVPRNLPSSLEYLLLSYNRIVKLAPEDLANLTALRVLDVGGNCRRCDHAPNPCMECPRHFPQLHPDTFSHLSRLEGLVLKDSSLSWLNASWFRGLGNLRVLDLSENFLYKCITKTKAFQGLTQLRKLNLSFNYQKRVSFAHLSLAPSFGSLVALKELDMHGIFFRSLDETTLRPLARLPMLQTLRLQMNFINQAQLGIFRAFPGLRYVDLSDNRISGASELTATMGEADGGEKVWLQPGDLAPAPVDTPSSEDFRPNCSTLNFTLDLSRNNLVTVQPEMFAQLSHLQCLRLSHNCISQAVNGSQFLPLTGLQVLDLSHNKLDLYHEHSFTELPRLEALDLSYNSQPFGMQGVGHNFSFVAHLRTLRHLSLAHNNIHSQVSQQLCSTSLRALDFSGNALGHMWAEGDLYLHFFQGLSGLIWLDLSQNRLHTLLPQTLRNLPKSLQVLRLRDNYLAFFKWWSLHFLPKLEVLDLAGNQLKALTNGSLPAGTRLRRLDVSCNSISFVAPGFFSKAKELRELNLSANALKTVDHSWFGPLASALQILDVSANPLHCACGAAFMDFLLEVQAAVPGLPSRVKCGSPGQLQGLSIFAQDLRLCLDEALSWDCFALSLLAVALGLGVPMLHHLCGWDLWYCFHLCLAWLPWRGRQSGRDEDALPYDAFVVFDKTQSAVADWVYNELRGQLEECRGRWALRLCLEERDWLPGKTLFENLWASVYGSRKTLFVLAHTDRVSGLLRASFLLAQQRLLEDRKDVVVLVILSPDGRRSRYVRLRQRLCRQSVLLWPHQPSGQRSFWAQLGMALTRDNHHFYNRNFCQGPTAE
Description: TLR9 inhibition reporter assay (HEK-Blue cells, SEAP reporter, ODN2006 stimulation). The conditions noted are these: HEK-Blue cells overexpressing human TLR9, SEAP reporter, ODN2006 5 nM. Put shortly: as §1

Assay [3] deals with T3, human TLR7 (Homo sapiens, UniProt Q9NYK1).
T3 construct: host or cells: HEK-Blue cells (HEK293-derived reporter line)
T3 sequence (Q9NYK1 27-1049): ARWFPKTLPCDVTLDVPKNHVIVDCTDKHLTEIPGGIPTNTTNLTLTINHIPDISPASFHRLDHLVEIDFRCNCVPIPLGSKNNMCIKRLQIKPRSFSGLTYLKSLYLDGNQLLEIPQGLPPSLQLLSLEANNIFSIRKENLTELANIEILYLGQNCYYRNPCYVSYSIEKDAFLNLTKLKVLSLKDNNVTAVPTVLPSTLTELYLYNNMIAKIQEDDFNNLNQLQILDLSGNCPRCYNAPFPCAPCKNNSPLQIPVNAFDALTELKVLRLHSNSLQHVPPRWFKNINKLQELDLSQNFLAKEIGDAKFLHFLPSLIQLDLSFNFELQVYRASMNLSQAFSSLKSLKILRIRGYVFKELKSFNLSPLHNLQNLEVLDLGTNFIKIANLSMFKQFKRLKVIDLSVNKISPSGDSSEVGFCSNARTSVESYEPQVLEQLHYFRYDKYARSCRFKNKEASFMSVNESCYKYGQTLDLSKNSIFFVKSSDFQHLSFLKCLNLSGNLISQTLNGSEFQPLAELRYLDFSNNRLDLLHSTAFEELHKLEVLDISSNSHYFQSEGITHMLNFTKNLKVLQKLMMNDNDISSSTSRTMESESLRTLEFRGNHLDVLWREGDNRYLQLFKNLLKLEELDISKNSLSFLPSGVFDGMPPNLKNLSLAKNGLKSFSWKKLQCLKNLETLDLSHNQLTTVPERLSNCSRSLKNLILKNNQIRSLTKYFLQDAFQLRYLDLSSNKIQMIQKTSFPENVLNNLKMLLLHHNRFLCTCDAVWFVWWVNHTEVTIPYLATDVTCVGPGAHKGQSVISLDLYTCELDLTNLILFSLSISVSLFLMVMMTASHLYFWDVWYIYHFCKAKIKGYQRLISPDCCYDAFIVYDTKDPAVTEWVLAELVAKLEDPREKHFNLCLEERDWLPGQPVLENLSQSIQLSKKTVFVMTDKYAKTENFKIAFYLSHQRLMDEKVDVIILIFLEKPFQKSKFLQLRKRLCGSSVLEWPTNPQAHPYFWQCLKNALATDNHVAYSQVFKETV
Description: TLR7 inhibition reporter assay (HEK-Blue cells, SEAP reporter, gardiquimod stimulation). Conditions: HEK-Blue cells overexpressing human TLR7, SEAP reporter, gardiquimod 7.5 μM. Put shortly: as §1

Turning to `Cc1cc(-c2[nH]c3ccc(C4CCN(C(=O)CN(C)C)CC4)cc3c2C(C)C)cn2ccnc12` [Example 528, 2-(dimethylamino)-1-(4-(3-isopropyl-2-(8-methylimidazo[1,2-a]pyridin-6-yl)-1H-indol-5-yl)piperidin-1-yl)ethan-1-one], the values for the IC50 in assay [1], in assay [2] and in assay [3] were less than 0.1 µM, 0.1 to 1 µM and less than 0.1 µM, respectively.

Turning to `COc1cc(-c2[nH]c3ccc(C4CCNCC4)cc3c2C(C)C)cc2nccn12` [Example 163, 7-(3-isopropyl-5-(piperidin-4-yl)-1H-indol-2-yl)-5-methoxyimidazo[1,2-a]pyridine], the IC50 in assay [1], in assay [2] and in assay [3] was 0.1 to 1 µM each time.

With `Cc1cc(-c2[nH]c3ccc(C4CCN(C5CCOCC5)CC4)cc3c2C(C)C)cc2cccnc12` [Example 704, 6-(3-isopropyl-5-(1-(tetrahydro-2H-pyran-4-yl)piperidin-4-yl)-1H-indol-2-yl)-8-methylquinoline], the values for the IC50 in assay [1], in assay [2] and in assay [3] were 0.1 to 1 µM, 1 to 50 µM and less than 0.1 µM, respectively.

As to `CCc1c(-c2ccc3oc(=O)[nH]c3c2)[nH]c2ccc(C3CCNCC3)cc12` [Example 168, 5-(3-ethyl-5-(piperidin-4-yl)-1H-indol-2-yl)benzo[d]oxazol-2(3H)-one], the IC50 in assay [1], in assay [2] and in assay [3] was 0.1 to 1 µM each time.

For the compound `CC(C)c1c(-c2ccnc3[nH]ncc23)[nH]c2ccc(C3CCN(CC4CCN(C(C)C)CC4)CC3)c(F)c12` [Example 967, 4-(4-fluoro-3-isopropyl-5-(1-((1-isopropylpiperidin-4-yl)methyl)piperidin-4-yl)-1H-indol-2-yl)-1H-pyrazolo[3,4-b]pyridine], the results for the IC50 in assay [1], in assay [2] and in assay [3] were 0.1 to 1 µM, 1 to 50 µM and 0.1 to 1 µM, respectively.

For `Cc1cc(-c2[nH]c3ccc(C4CCN(C5COC5)CC4)cc3c2C(C)C)c2ccccc2n1` [Example 725, 4-(3-isopropyl-5-(1-(oxetan-3-yl)piperidin-4-yl)-1H-indol-2-yl)-2-methylquinoline], the IC50 is 0.1 to 1 µM in assay [1], 1 to 50 µM in assay [2] and less than 0.1 µM in assay [3].

Take `CCc1c(-c2ccnc3[nH]ncc23)[nH]c2ccc(C3CCN(C4CCN(C(C)C)CC4)CC3)cc12` [Example 824, 4-(3-ethyl-5-(1′-isopropyl-[1,4′-bipiperidin]-4-yl)-1H-indol-2-yl)-1H-pyrazolo[3,4-b]pyridine]: the half-inhibitory concentration (IC50) in assay [1], in assay [2] and in assay [3] was less than 0.1 µM each time.

In the case of `CC(C)c1c(-c2ccc3nccn3c2)[nH]c2ccc(C3CCN(C(C)C)CC3)cc12` [Example 946, 6-(3-isopropyl-5-(1-isopropylpiperidin-4-yl)-1H-indol-2-yl)imidazo[1,2-a]pyridine], the concentration for half-maximal inhibition (IC50) in assay [1] is less than 0.1 µM; in assay [2], 0.1 to 1 µM; in assay [3] it was less than 0.1 µM.

For `CCc1c(-c2ccc3ncc(C)n3n2)[nH]c2ccc(C3CCNCC3)cc12` [Example 103, 6-(3-ethyl-5-(piperidin-4-yl)-1H-indol-2-yl)-3-methylimidazo[1,2-b]pyridazine], the IC50 in assay [1] lay within 0.1 to 1 µM; in assay [2] it was 1 to 50 µM; in assay [3] it was 1 to 50 µM.

Take `CCc1c(-c2ccnc3[nH]ncc23)[nH]c2ccc(C3CCN(Cc4c(C)noc4C)CC3)cc12` [Example 893, 4-((4-(3-ethyl-2-(1H-pyrazolo[3,4-b]pyridin-4-yl)-1H-indol-5-yl)piperidin-1-yl)methyl)-3,5-dimethylisoxazole]: the IC50 in assay [1] is less than 0.1 µM; in assay [2], 1 to 50 µM; in assay [3], 0.1 to 1 µM.

As for `CC(C)c1c(-c2cnc3c(cnn3C)c2)[nH]c2ccc(C3CCN(CC(=O)N(C)C)CC3)cc12` [Example 367, 2-(4-(3-isopropyl-2-(1-methyl-1H-pyrazolo[3,4-b]pyridin-5-yl)-1H-indol-5-yl)piperidin-1-yl)-N,N-dimethylacetamide], the concentration for half-maximal inhibition (IC50) was less than 0.1 µM in assay [1], 1 to 50 µM in assay [2] and less than 0.1 µM in assay [3].

`CCc1c(-c2ccnc3cnn(C)c23)[nH]c2ccc(C3CCNCC3)cc12` [Example 41, 7-(3-ethyl-5-(piperidin-4-yl)-1H-indol-2-yl)-1-methyl-1H-pyrazolo[4,3-b]pyridine]: the concentration for half-maximal inhibition (IC50) in assay [1] lay in the range of 0.1 to 1 µM; in assay [2], 1 to 50 µM; in assay [3], 0.1 to 1 µM.

Turning to `CC(C)c1c(-c2ccc3onc(N)c3c2)[nH]c2ccc(C3CCNCC3)cc12` [Example 7, 5-(3-isopropyl-5-(piperidin-4-yl)-1H-indol-2-yl)benzo[d]isoxazol-3-amine], the IC50 in assay [1] is less than 0.1 µM; in assay [2], 0.1 to 1 µM; in assay [3], less than 0.1 µM.

As for `CC(C)c1c(-c2cnc3ccnn3c2)[nH]c2ccc(C3CCN(CC(C)(C)O)CC3)cc12` [Example 759, 1-(4-(3-isopropyl-2-(pyrazolo[1,5-a]pyrimidin-6-yl)-1H-indol-5-yl)piperidin-1-yl)-2-methylpropan-2-ol], the IC50 in assay [1] lay within 1 to 50 µM; in assay [2] it was 1 to 50 µM; in assay [3], 0.1 to 1 µM.
